The conditions of data set [1]: rabbit, in vivo.
Protocol: Each animal is placed in an individual cage and receives a food ration of 200 g to 250 g per day.
(§1) The food intake is measured daily and the animals are weighed once a week. Plasma samples are taken every fifteen days from the marginal ear vein. The blood, collected in heparin tubes, is centrifuged (4° C., 2000 g, 15 minutes). Part of the plasma is deproteinized by a solution of sulphosalicylic acid (30%) then divided into aliquot fractions with a view to an assay of the amino acids. The remainder of the plasma is aliquoted into several fractions of about 200 μl, and stored at −80° C.
The plasmatic arginine, ornithine and citrulline concentrations are determined on a JEOL (Tokyo, Japan) amino acid analyzer. The amino acids are separated by cation-exchange chromatography. On leaving the column, they are developed by a ninhydrin stain reaction. The reaction obtained is quantified by photometry at 570 and 440 nm. The results are expressed in μmol/l.
Data set [2] deals with Watanabe rabbits. Kind of data set: Lipid profile (plasmatic cholesterol, triglycerides, HDL, LDL) in treated Watanabe rabbits. It counts as in vivo, rabbit. Here is the method:
2. […] The cholesterol is assayed according to an enzymatic colorimetric test using a cholesterol-esterase and a cholesterol-oxidase, followed by a reaction with a peroxidase. The latter reacts with hydrogen peroxide and releases a red derivative the stain intensity of which (measured between 550 and 700 nm) is directly proportional to the cholesterol concentration. The triglyceride assay is also based on this principle, using a lipase which releases glycerol, and a peroxidase which reacts with the hydrogen peroxide and forms a red compound. The HDL cholesterol is assayed by an enzymatic calorimetric test in two phases. The first selects the different lipid fractions by means of dextran sulphate. […] The results are expressed in mmol/l. The kits necessary for all these assays are supplied by RANDOX (Montpellier, France).

The subject of data set [3] is Watanabe rabbits. The data set is described as follows: Macroscopic study of the aortas: surface area of the lesions by planimetry. It counts as in vivo, rabbit. As for the experimental part:
After eight weeks, a sampling of serum (about 1 ml) is carried out then the animals are anaesthetized with an injection of heparinized pentobarbital, and finally sacrificed.
On the day of sacrifice, after anaesthesia, in the shortest possible time, the animal is opened along the whole length of the cervico-thoracic region. The aorta is incised as low as possible. Using curved scissors, the aorta is removed from the aortic arch as far as the level of the iliac bifurcation following the vertebral column. The aorta is first cleaned in physiological serum and the fatty tissues are removed from its external tunica. It is fixed for 20 minutes in a 2% paraformaldehyde-2% glutaraldehyde mixture then opened along its length. It is then again immersed in the same fixer for 24 hours, after which the aorta is rinsed in 70% ethanol, then stained with Soudan IV for 15 minutes. It is once again rinsed in 80% ethanol for 20 minutes then under running water for 1 hour (22). […] The images are analyzed by means of planimetry software (Scion Image) which makes it possible to determine the surface of the lesions. Finally the aorta is fixed in the same fixer with a view to microscopic study.

Data set [4] in a line: Monitoring of the animals: weight and food intake. Type of data set: in vivo, rabbit. To be noted: not included in the study.
Protocol: Twenty-four Watanabe rabbits (Centre de Production Animale, Olivet, France) which are hyperlipidaemic due to an hereditary LDL-receptor (LDL-R) deficiency, homozygous, and six weeks old, are used. Each animal is placed in an individual cage and receives a food ration of 200 g to 250 g per day.
as §1
For data set [5], the system named is hypercholesterolemic rabbits. To be noted: enriched diet over 12 to 16 weeks; cited from earlier work.
Data set [6] concerns New Zealand White rabbits. To be noted: 2.5 mg/kg/day; cited from earlier work.
In data set [7] the test system is New Zealand White rabbit. The following applies: cited from earlier work.
The subject of data set [8] is Watanabe rabbits. To be noted: 16 weeks; cited from earlier work.

Entries after “also recorded” stand apart in the source; their conditions may differ.

For `N=C(N)NCCC[C@H](N)C(=O)O` [arginine, L-Arginine], in data set [1], the “L-Arginine concentration in general” value is “doubled”; the “plasmatic arginine concentration, at T4” value is on record as “doubled”; the “plasmatic arginine concentration, at T8” value is given as “drops”. In data set [2] (8 weeks treatment, versus control at T8, FIG. 3), the “effect on the plasmatic cholesterol” value is recorded as “no effect”. For the same compound, the “effect on the lipid profile” value in data set [2] (arginine diet alone) is listed as “no appreciable effect”. Moreover, the “increase in the plasmatic cholesterol concentration” value in data set [2] (between T0 and T8) is given as 30%. Also, the “plasmatic triglycerides concentration, course” value in data set [2] (between T0 and T8, FIG. 4) is recorded as “increases with age; also recorded: increase by more than half”. The “lesion surface smaller than the control by a factor” value in data set [3] (T8) turned out to be 1.3. Besides, in data set [3] (T8, versus the control, FIG. 10), the “surface area of the lesions (whole aorta)” value is listed as “smaller”. Moreover, the “surface area of the lesions, distal half of the aorta” value in data set [3] (T8, FIG. 11) is recorded as “no effect”. Moreover, the “animals died before the end of the protocol” value in data set [4] is listed as “two animals”. Besides, the atheromatous plaque area entry in data set [5] is “stabilization”.

Take `CC(C)c1c(C(=O)Nc2ccccc2)c(-c2ccccc2)c(-c2ccc(F)cc2)n1CC[C@@H](O)C[C@@H](O)CC(=O)O` [atorvastatin, Atorvastatin, reference compound]: in data set [6], the “size of the lesions” value is reported as “reduction in the size of the lesions”. The “effect on LDL concentration” value in data set [2] (FIG. 6, during treatment) was “induces a reduction”. The “reduction of the LDL fraction” value in data set [2] (LDL calculated by Friedewald formula, between T0 and T8) is on record as 27.16%.

Take `CC[C@H](C)C(=O)O[C@H]1C[C@@H](C)C=C2C=C[C@H](C)[C@H](CC[C@@H]3C[C@@H](O)CC(=O)O3)[C@H]21` [lovastatin]: in data set [7] (16 weeks, New Zealand White rabbit), the reduction in cholesterol is 32%. Moreover, the plaque progression entry in data set [7] (New Zealand White rabbits) is “slowed down the plaque progression”.

Regarding `O=C(O)C[C@H](O)C[C@H](O)/C=C/c1c(C2CC2)nc2ccccc2c1-c1ccc(F)cc1` [pitavastatin], in data set [8], the “reduction in plasmatic cholesterol” value is given as 28.6%.

Source of the values: US20080312263A1, “PHARMACEUTICAL COMPOSITIONS FOR THE PREVENTION AND TREATMENT OF ATHEROSCLEROSIS” (UNIVERSITE RENE DESCARTES-PARIS 5, priority 2004, published 2008).
